# Laboratory results published in patent publication US10975357B2, “Methods and compositions related to differentiated lung cells” (TRUSTEES OF BOSTON UNIVERSITY, priority 2017, dated 2021).
# Columns and labels:
# Assay type in all cases: cell-based, human
# [1] = system: NKX2-1+ lung epithelial progenitor cells; test: SFTPCtdTomato reporter induction in day 15 NKX2-1+ progenitor outgrowth in 3D culture (flow cytometry)
# Description: Purification of NKX2-1+ Lung Progenitors by Cell Sorting. On day 15 of differentiation, cells were incubated at 37° C. in 0.05% trypsin-EDTA (Invitrogen) for 7-15 minutes, until they reached single cell suspension. Cells were then washed in media containing 10% fetal bovine serum (FBS, ThermoFisher), centrifuged at 300g×5 minutes, and resuspended in sort buffer containing Hank's Balanced Salt Solution (ThermoFisher), 2% FBS, 10 μM Y-27632, and 10 uM calcein blue AM (Life Technologies) for dead cell exclusion. Cells not containing the NKX2-1GFP reporter were subsequently stained with CD47-PerCPCy5.5 and CD26-PE antibodies (mouse monoclonal; Biolegend 1:200; 1×10^6 cells in 100 ul) for 30 minutes at 4° C., washed with PBS, and resuspended in sort buffer. Cells were passed through a 40 um strainer prior to sorting (Falcon). Various live cell populations indicated in the text (i.e. GFP+, GFP−, CD47hi/CD26−,CD47lo) were sorted on a high-speed cell sorter (MoFlo Legacy). Directed Differentiation of NKX2-1+ Lung Progenitor Outgrowth into iAEC2s Day 15 cells, either sorted (as described above) or unsorted (dissociated as described above), were resuspended in undiluted growth factor-reduced matrigel (Corning) at a dilution of 50-100 cells/ul, with droplets ranging in size from 20 ul in 96 well plates to 1 ml in 10 cm tissue culture-treated dishes (Corning). Cells in matrigel suspension were incubated at 37° C. for 20-30 minutes, then warm media was added to the plates. […]
# Alveolosphere Long Term Culture, Dissociation, and Differentiation. […] These spheres were analyzed as follows: Z-stack images of live alveolospheres were taken and processed on a Keyence (Osaka, Japan) BZ-X700 fluorescence microscope. […] To generate single cell suspensions, cell pellets were incubated in 0.05% trypsin and continued through the trypsin-based dissociation protocol described above, after which they could be passaged into fresh matrigel, analyzed by flow cytometry, or sorted as described above. […]
# [2] = system: BU3 NKX2-1GFP+/SFTPCtdTomato- population; test: Late CHIR withdrawal from sorted NKX2-1GFP+/SFTPCtdTomato- population in 3D culture; conditions: CHIR withdrawn for 10 days (days 40-50), cells sorted day 38
# Description: (§1) Where indicated in the text, outgrowth and distal/alveolar differentiation of cells after day 15 was performed in “CK+DCI” medium, consisting of cSFDM base, with 3 μM CHIR99021, 10 ng/mL rhKGF, and 50 nM dexamethasone (Sigma), 0.1 mM 8-Bromoadenosine 3′,5′-cyclic monophosphate sodium salt (Sigma) and 0.1 mM 3-Isobutyl-1-methylxanthine (IBMX) (Sigma) (DCI). Immediately after replating cells on Day 15 10 μM Y-27632 was added to the medium for 24 hours. Additional growth factors or cytokines were added or withdrawn as indicated in the text, including FGF10, TGFb, EGF, OSM (20 ng/ml), TNFa (10 ng/ml), and IL-1b (10 ng/ml) with other concentrations listed in figure legends (FIGS. 9A, 9B).
# (§2) Alveolosphere Long Term Culture, Dissociation, and Differentiation. Alveolospheres developed in 3D matrigel culture outgrowths within 3-7 days after day 15 replating, and were maintained in CK+DCI media for weeks to months, as indicated in the text. These spheres were analyzed as follows: Z-stack images of live alveolospheres were taken and processed on a Keyence (Osaka, Japan) BZ-X700 fluorescence microscope. […] To generate single cell suspensions, cell pellets were incubated in 0.05% trypsin and continued through the trypsin-based dissociation protocol described above, after which they could be passaged into fresh matrigel, analyzed by flow cytometry, or sorted as described above. […]
# RUES2 alveolospheres = test: CHIR addback after 1-week withdrawal in alveolospheres; conditions: CHIR withdrawn week 4-5, added back week 5-6
# Description: as §1, §2
# TNFa/NFkB pathway = test: Cytokine stimulation of PSC-derived alveolospheres, TNFa/NFkB pathway (Western blot IkB, IL8 and GM-CSF RT-qPCR); conditions: TNFa 10 ng/ml and IL1b 10 ng/ml given together
# Description: as §1
# Reverse Transcriptase Quantitative Real Time Polymerase Chain Reaction (RT-qPCR). RT-qPCR was performed as previously described (Hawkins et al. 2017,). Briefly, RNA was isolated according to manufacturer's instructions using the Qiagen miRNeasy mini kit (Qiagen, Venlo, Netherlands). cDNA was generated by reverse transcription of up to 150 ng RNA from each sample using the Applied Biosystems High-Capacity cDNA Reverse Transcription Kit. […] Relative gene expression was calculated based on the average cycle (Ct) value of the technical triplicates, normalized to 18S control, and reported as fold change (2(−ΔΔCT)), with a fold change of 1 being assigned to undifferentiated (day 0) iPSCs or ESCs. […]
molecule,measurement,setting,value
"Cc1c[nH]c(-c2cnc(NCCNc3ccc(C#N)cn3)nc2-c2ccc(Cl)cc2Cl)n1 [CHIR, CHIR99021, reference compound]",emergence of SFTPC+ cells from NKX2-1+ precursors in presence of Wnt stimulation via CHIR,[1]; 17-22 total differentiation days,2 to 7 days
same,cells with induction of the SFTPCtdTomato reporter,"[1]; sorted NKX2-1GFP+ cells, by day 21, presence of CHIR in K+DCI base media",7.17+/−0.89%
same,efficiency of differentiation into SFTPC+ progeny after withdrawal of CHIR,[2],68.7%
same,effect of re-exposure to CHIR after 1-week withdrawal,RUES2 alveolospheres,maintained expression of the SFTPCtdTomato reporter and increased proliferation
"EGF: Recombinant mouse EGF (NSYPGCPSSYDGYCLNGGVCMHIESLDSYTCNCVIGYSGDRCQTRDLRWWELR; UniProt P01132 977-1029, looked up)",further SFTPC induction efficiency with addition of the factor,"[1]; factor added to differentiation media, FIG. 9B",No consistent further SFTPC induction efficiency
IL1b: Recombinant human IL1-b,"NFkB signaling (IkB protein decrease, IL8 and GM-CSF expression)",TNFa/NFkB pathway,activated NFkB signaling
TNFa,"NFkB signaling (IkB protein decrease, IL8 and GM-CSF expression)",TNFa/NFkB pathway,activated NFkB signaling
